Read-outs that look alike come from different tables or passages of the source.
Tests used:
AVP-V1 sites = target: T1, AVP-V1 sites (Rattus norvegicus, UniProt P30560); test: [3H]vasopressin (AVP) radioligand binding, liver membranes (AVP-V1 sites); conditions: for inhibition at 3 µM: read-out: % Inhibition rat V1
T1 construct: crude membrane preparation of male rat liver; from tissue; host or cells: male rat liver, crude membrane preparation

AVP-V2 sites = AVP-V2 sites (Rattus norvegicus, UniProt Q00788); test: [3H]vasopressin (AVP) radioligand binding, kidney medulla membranes (AVP-V2 sites); conditions: for inhibition at 3 µM: read-out: % Inhibition rat V2
uterine OT receptors = target: T2, uterine OT receptors (Rattus norvegicus, UniProt P70536); test: [3H]oxytocin (OT) radioligand binding, uterine membranes; conditions: for inhibition at 10 µM: read-out: % Inhibition rat OT
T2 construct: using a crude membrane preparation of uteri; from tissue; host or cells: rat uterus, crude membrane preparation (DES-treated rats)
T2 sequence (P70536 1-388): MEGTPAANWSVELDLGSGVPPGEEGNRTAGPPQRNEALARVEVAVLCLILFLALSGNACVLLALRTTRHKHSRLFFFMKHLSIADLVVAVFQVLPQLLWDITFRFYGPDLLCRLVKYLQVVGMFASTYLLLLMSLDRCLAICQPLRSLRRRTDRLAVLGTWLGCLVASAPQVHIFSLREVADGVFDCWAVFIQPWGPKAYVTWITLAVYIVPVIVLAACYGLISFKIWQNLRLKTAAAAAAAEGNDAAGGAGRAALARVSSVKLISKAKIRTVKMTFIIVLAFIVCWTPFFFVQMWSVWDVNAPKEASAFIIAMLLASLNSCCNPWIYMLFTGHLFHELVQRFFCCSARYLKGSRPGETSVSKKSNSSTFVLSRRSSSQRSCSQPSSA

T1 sequence (P30560 whole entry): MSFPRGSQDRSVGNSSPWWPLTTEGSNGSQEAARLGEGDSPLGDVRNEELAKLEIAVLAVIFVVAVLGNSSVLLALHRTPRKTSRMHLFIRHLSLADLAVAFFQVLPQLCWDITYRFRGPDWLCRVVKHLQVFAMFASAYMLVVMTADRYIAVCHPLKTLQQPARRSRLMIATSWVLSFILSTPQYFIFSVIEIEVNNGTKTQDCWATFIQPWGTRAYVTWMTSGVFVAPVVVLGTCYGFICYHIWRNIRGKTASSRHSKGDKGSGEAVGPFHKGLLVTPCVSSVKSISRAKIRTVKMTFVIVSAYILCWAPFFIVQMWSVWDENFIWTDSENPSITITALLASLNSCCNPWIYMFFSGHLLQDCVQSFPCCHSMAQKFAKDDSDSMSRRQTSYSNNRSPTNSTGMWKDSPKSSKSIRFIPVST
Sequence of AVP-V2 sites (Q00788 whole entry): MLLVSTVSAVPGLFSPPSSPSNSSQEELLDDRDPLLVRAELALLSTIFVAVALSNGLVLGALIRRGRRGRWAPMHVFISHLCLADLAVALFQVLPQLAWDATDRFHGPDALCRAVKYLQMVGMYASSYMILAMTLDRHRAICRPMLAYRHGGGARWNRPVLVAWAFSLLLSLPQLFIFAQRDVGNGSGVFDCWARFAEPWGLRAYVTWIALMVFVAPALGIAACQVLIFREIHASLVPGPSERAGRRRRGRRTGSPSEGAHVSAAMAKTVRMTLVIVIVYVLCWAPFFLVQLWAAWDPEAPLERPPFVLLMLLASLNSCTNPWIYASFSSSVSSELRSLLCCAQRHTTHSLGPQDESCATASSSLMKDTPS

Work on O=C(c1ccc(-c2ccccc2)cc1)N1CCC(N2C(=O)CCc3ccccc32)CC1 [C6H5] yielded an inhibition at 3 µM (AVP-V1 sites) of 65%, an inhibition at 3 µM (AVP-V2 sites) of 2% and an IC50 (uterine OT receptors) of 3500 nM.
For O=C(c1ccc(C(F)(F)F)cc1)N1CCC(N2C(=O)CCc3ccccc32)CC1 [CF3], the IC50 (AVP-V1 sites) was 800 nM, the IC50 (AVP-V2 sites) was 60000 nM and the inhibition at 10 µM (uterine OT receptors) was 69%.
Molecule O=C(c1cccc2ccccc12)N1CCC(N2C(=O)CCc3ccccc32)CC1 [CO, 1-naphthyl] has an inhibition at 3 µM (AVP-V1 sites; @ 3 uM) of 17%, an inhibition at 3 µM (AVP-V2 sites; @ 3 uM) of 5% and an inhibition at 10 µM (uterine OT receptors; @ 10 uM) of 69%.
In the case of O=C(c1ccc2ccccc2c1)N1CCC(N2C(=O)CCc3ccccc32)CC1 [CO, 2-naphthyl], the inhibition at 3 µM (AVP-V1 sites) is reported as 75%, the inhibition at 3 µM (AVP-V2 sites) is reported as 7% and the inhibition at 10 µM (uterine OT receptors) is reported as 75%.
Work on O=C(c1ccc2[nH]ccc2c1)N1CCC(N2C(=O)CCc3ccccc32)CC1 [CO, 5-indolyl] yielded an IC50 (AVP-V1 sites) of 240 nM, an IC50 (AVP-V2 sites) of 56000 nM and an IC50 (uterine OT receptors) of 1700 nM.
Work on Nc1ccc(CC(=O)N2CCC(N3C(=O)CCc4ccccc43)CC2)cc1 [CO, p-CH2C6H4NH2] yielded an inhibition at 3 µM (AVP-V1 sites; @ 3 uM) of 27%, an inhibition at 3 µM (AVP-V2 sites; @ 3 uM) of 1% and an inhibition at 1 µM (uterine OT receptors; @ 1 uM) of 19%.
Molecule CC(=O)Nc1ccc(CC(=O)N2CCC(N3C(=O)CCc4ccccc43)CC2)cc1 [CO, p-CH2C6H4NHAc] has an IC50 (AVP-V1 sites) of 950 nM, an IC50 (AVP-V2 sites) of over 100000 nM and an IC50 (uterine OT receptors) of 2300 nM.
In the case of COc1ccc(CC(=O)N2CCC(N3C(=O)CCc4ccccc43)CC2)cc1 [CO, p-CH2C6H4OCH3], the IC50 (AVP-V1 sites) is reported as 6000 nM, the IC50 (AVP-V2 sites) is reported as over 100000 nM and the IC50 (uterine OT receptors) is reported as 2400 nM.
With O=C(c1ccc(OCCCN2C(=O)c3ccccc3C2=O)cc1)N1CCC(N2C(=O)CCc3ccccc32)CC1 [Example 2] the IC50 (uterine OT receptors) was 1100 nM.
Work on COc1ccc(C(=O)N2CCC(N3C(=O)CCc4ccccc43)CC2)c(OC)c1 [Example 5] yielded an IC50 (AVP-V1 sites) of 39 nM and an IC50 (uterine OT receptors) of 560 nM.
With O=C(c1ccc(OCCCN2C(=O)c3ccccc3C2=O)cc1)N1CCC(N2C(=O)CCc3ccccc32)CC1 [O(CH2)3NPth (drawing 528)] the IC50 (AVP-V2 sites) was at least 100000 nM.
CC1(C)[C@@H]2CC[C@@]1(CS(=O)(=O)N1CCC(N3C(=O)CCc4ccccc43)CC1)C(=O)C2 [SO2, (+)-camphor-10-yl] was tested, and the IC50 (AVP-V1 sites) was 8000 nM, the IC50 (AVP-V2 sites) was 72000 nM and the IC50 (uterine OT receptors) was 1900 nM.
COc1ccc(S(=O)(=O)N2CCC(N3C(=O)CCc4ccccc43)CC2)cc1 [SO2, p-C6H4OCH3] showed an inhibition at 3 µM (AVP-V1 sites; @ 3 uM) of 15%, an inhibition at 3 µM (AVP-V2 sites; @ 3 uM) of 12% and an inhibition at 10 µM (uterine OT receptors; @ 10 uM) of 36%.
In the case of COc1cccc(C(=O)N2CCC(N3C(=O)CCc4ccccc43)CC2)c1 [m-OCH3], the IC50 (AVP-V1 sites) is reported as 2100 nM, the IC50 (AVP-V2 sites) is reported as over 100000 nM and the IC50 (uterine OT receptors) is reported as 2700 nM.
Work on Cc1ccc(C(=O)N2CCC(N3C(=O)CCc4ccccc43)CC2)c(C)c1 [o-CH3, p-CH3] yielded an inhibition at 3 µM (AVP-V1 sites; @ 3 uM) of 48%, an inhibition at 3 µM (AVP-V2 sites; @ 3 uM) of 55% and an inhibition at 10 µM (uterine OT receptors; @ 10 uM) of 79%.
Molecule O=C(c1ccc(Cl)cc1Cl)N1CCC(N2C(=O)CCc3ccccc32)CC1 [o-Cl, p-Cl] has an inhibition at 3 µM (AVP-V1 sites; @ 3 uM) of 34%, an inhibition at 3 µM (AVP-V2 sites; @ 3 uM) of 1% and an inhibition at 10 µM (uterine OT receptors; @ 10 uM) of 7%.
Work on O=C(c1ccc([N+](=O)[O-])cc1Cl)N1CCC(N2C(=O)CCc3ccccc32)CC1 [o-Cl, p-NO2] yielded an inhibition at 3 µM (AVP-V1 sites) of 34%, an inhibition at 3 µM (AVP-V2 sites) of 6% and an IC50 (uterine OT receptors) of 15000 nM.
For COc1ccc(C(=O)N2CCC(N3C(=O)CCc4ccccc43)CC2)c(OC)c1 [o-OCH3, p-OCH3 (drawing 527)], the IC50 (AVP-V2 sites) was 28000 nM.
Work on COc1ccccc1C(=O)N1CCC(N2C(=O)CCc3ccccc32)CC1 [o-OCH3] yielded an IC50 (AVP-V1 sites) of 380 nM, an IC50 (AVP-V2 sites) of 66000 nM and an IC50 (uterine OT receptors) of 1100 nM.
With CC(C)(C)c1ccc(C(=O)N2CCC(N3C(=O)CCc4ccccc43)CC2)cc1 [tert-C4H9] the IC50 (AVP-V1 sites) was 800 nM, the IC50 (AVP-V2 sites) was about 70000 nM and the inhibition at 10 µM (uterine OT receptors) was 77%.

Source: patent US5356904A, “Carbostyril oxytocin receptor antagonists” (Merck & Co., Inc., priority 1992, dated 1994)
